Laboratory results as given in patent US20170008921A1, “C-3 NOVEL TRITERPENONE WITH C-28 REVERSE AMIDE DERIVATIVES AS HIV INHIBITORS” (HETERO RESEARCH FOUNDATION, priority 2015, published 2017).
Where a name gives a salt, the structure may show the parent alone. Read-outs that look alike come from different tables or passages of the source.

Assay: Cyto-toxicity (MTT assay)
Type: cell-based
Method: On day 1 calculate the number of cells required for the assay and seed 3×10^4 cells in 200 μl per well. Weigh the compound and dissolve it in DMSO to get 10 mM stock which is further diluted to 3 mM and 1 mM. […] Add DMSO to controls in a way to obtain final concentration of solvent that is not greater than 1%. Incubate for 4 days in 5% CO2 incubator at 37° C. On day 4, 100 μl of medium was removed from each well without disturbing the cells. Add 10 μl of MTT reagent and incubate for 4 hours at 5% CO2 incubator at 37° C. for formation of crystals. Add 200 μl of 0.1N acidic isopropanol to dissolve the crystals and read the plate at 590 nm. The values are mentioned in below Table-3 and Table-3A.

[1] = 0.01 μM, MTT, 4 days (Table 3), read-out: Cytotoxicity % viability
[2] = 0.1 μM, MTT, 4 days (Table 3), read-out: Cytotoxicity % viability
[3] = 1 μM, MTT, 4 days (Table 3), read-out: Cytotoxicity % viability

SMILES	viability at 4 days, 0.01 µM [%]	viability at 4 days, 0.1 µM [%]	viability at 4 days, 1 µM [%]	also measured
CC(C)C1=C2[C@H]3CC[C@@H]4[C@@]5(C)CC[C@H](OC(=O)[C@H]6C[C@@H](C(=O)O)C6(C)C)C(C)(C)[C@@H]5CC[C@@]4(C)[C@]3(C)CC[C@@]2(NC(=O)C(C)(C)NC(=O)[C@@H](N)C(C)C)CC1=O [Example 36, (1R,3S)-3-((((3aR,5aR,5bR,7aR,9S,11aR,11bR,13aS)-3a-(2-((S)-2-amino-3-methylbutanamido)-2-methylpropanamido)-1-isopropyl-5a,5b,8,8,11a-pentamethyl-2-oxo-3,3a,4,5,5a,5b,6,7,7a,8,9,10,11,11a,11b,12,13,13a-octadecahydro-2H-cyclopenta[a]chrysen-9-yl)oxy)carbonyl)-2,2-dimethylcyclobutane-1-carboxylic acid hydrochloride]				viability at 4 days, 0.01 µM [1]: 56%; viability at 4 days, 0.1 µM [2]: 15%; viability at 4 days, 1 µM [3]: 8%
CC(C)C1=C2[C@H]3CC[C@@H]4[C@@]5(C)CC[C@H](OC(=O)[C@H]6C[C@@H](C(=O)O)C6(C)C)C(C)(C)[C@@H]5CC[C@@]4(C)[C@]3(C)CC[C@@]2(NC(=O)C(C)(C)NC(=O)[C@H]2CCCNC2)CC1=O [Example 52, (1R,3S)-3-((((3aR,5aR,5bR,7aR,9S,11aR,11bR,13aS)-1-isopropyl-5a,5b,8,8,11a-pentamethyl-3a-(2-methyl-2-((S)-piperidine-3-carboxamido)propan amido)-2-oxo-3,3a,4,5,5a,5b,6,7,7a,8,9,10,11,11a,11b,12,13,13a-octadecahydro-2H-cyclopenta[a]chrysen-9-yl)oxy)carbonyl)-2,2-dimethylcyclobutane-1-carboxylic acid hydrochloride]				viability at 4 days, 0.001 µM (0.001 μM, MTT, 4 days (Table 3A), read-out: Cytotoxicity % viability): 83%; viability at 4 days, 0.003 µM (0.003 μM, MTT, 4 days (Table 3A), read-out: Cytotoxicity % viability): 89%; viability at 4 days, 0.01 µM (0.01 μM, MTT, 4 days (Table 3A), read-out: Cytotoxicity % viability): 59%
CC(C)C1=C2[C@H]3CC[C@@H]4[C@@]5(C)CC[C@H](OC(=O)[C@H]6C[C@@H](C(=O)O)C6(C)C)C(C)(C)[C@@H]5CC[C@@]4(C)[C@]3(C)CC[C@@]2(NC(=O)C(C)(C)NC(=O)c2ccc(Cl)cc2)CC1=O [Example 1, (1R,3S)-3-((((3aR,5aR,5bR,7aR,9S,11aR,11bR,13aS)-3a-(2-(4-chlorobenzamido)-2-methylpropanamido)-1-isopropyl-5a,5b,8,8,11a-pentamethyl-2-oxo-3,3a,4,5,5a,5b,6,7,7a,8,9,10,11,11a,11b,12,13,13a-octadecahydro-2H-cyclopenta[a]chrysen-9-yl)oxy)carbonyl)-2,2-dimethylcyclobutane-1-carboxylic acid]	57	10	4	
CC(C)C1=C2[C@H]3CC[C@@H]4[C@@]5(C)CC[C@H](OC(=O)[C@H]6C[C@@H](C(=O)O)C6(C)C)C(C)(C)[C@@H]5CC[C@@]4(C)[C@]3(C)CC[C@@]2(NC(=O)C(C)(C)NS(C)(=O)=O)CC1=O [Example 63, sodium (1R,3S)-3-((((3aR,5aR,5bR,7aR,9S,11aR,11bR,13aS)-1-isopropyl-5a,5b,8,8,11a-pentamethyl-3a-(2-methyl-2-(methylsulfonamido)propanamido)-2-oxo-3,3a,4,5,5a,5b,6,7,7a,8,9,10,11,11a,11b,12,13,13a-octadecahydro-2H-cyclopenta[a]chrysen-9-yl)oxy)carbonyl)-2,2-dimethylcyclobutane-1-carboxylate]	51	16	0	
CC(C)C1=C2[C@H]3CC[C@@H]4[C@@]5(C)CC[C@H](OC(=O)[C@H]6C[C@@H](C(=O)O)C6(C)C)C(C)(C)[C@@H]5CC[C@@]4(C)[C@]3(C)CC[C@@]2(NC(=O)C2(NC(=O)c3ccc(F)cc3)CC2)CC1=O [Example 39, (1R,3S)-3-((((3aR,5aR,5bR,7aR,9S,11aR,11bR,13aS)-3a-(1-(4-fluorobenzamido)cyclopropane-1-carboxamido)-1-isopropyl-5a,5b,8,8,11a-pentamethyl-2-oxo-3,3a,4,5,5a,5b,6,7,7a,8,9,10,11,11a,11b,12,13,13a-octadecahydro-2H-cyclopenta[a]chrysen-9-yl)oxy)carbonyl)-2,2-dimethylcyclobutane-1-carboxylic acid]	29	2	0	
CC(C)C1=C2[C@H]3CC[C@@H]4[C@@]5(C)CC[C@H](OC(=O)[C@H]6C[C@@H](C(=O)O)C6(C)C)C(C)(C)[C@@H]5CC[C@@]4(C)[C@]3(C)CC[C@@]2(NC(=O)C(C)(C)NC(=O)CN2CCS(=O)(=O)CC2)CC1=O [Example 34, (1R,3S)-3-((((3aR,5aR,5bR,7aR,9S,11aR,11bR,13aS)-3a-(2-(2-(1,1-dioxidothiomorpholino)acetamido)-2-methylpropanamido)-1-isopropyl-5a,5b,8,8,11a-pentamethyl-2-oxo-3,3a,4,5,5a,5b,6,7,7a,8,9,10,11,11a,11b,12,13,13a-octadecahydro-2H-cyclopenta[a]chrysen-9-yl)oxy)carbonyl)-2,2-dimethylcyclobutane-1-carboxylic acid]	26	10	1	
CC(C)C1=C2[C@H]3CC[C@@H]4[C@@]5(C)CC[C@H](OC(=O)[C@H]6C[C@@H](C(=O)O)C6(C)C)C(C)(C)[C@@H]5CC[C@@]4(C)[C@]3(C)CC[C@@]2(NC(=O)C(C)(C)NC(=O)C2CCNCC2)CC1=O [Example 35, (1R,3S)-3-((((3aR,5aR,5bR,7aR,9S,11aR,11bR,13aS)-1-isopropyl-5a,5b,8,8,11a-pentamethyl-3a-(2-methyl-2-(piperidine-4-carboxamido)propanamido)-2-oxo-3,3a,4,5,5a,5b,6,7,7a,8,9,10,11,11a,11b,12,13,13a-octadecahydro-2H-cyclopenta[a]chrysen-9-yl)oxy)carbonyl)-2,2-dimethylcyclobutane-1-carboxylic acid hydrochloride]				viability at 4 days, 0.01 µM [1]: 84%; viability at 4 days, 0.1 µM [2]: 92%; viability at 4 days, 1 µM [3]: 77%
CC(C)C1=C2[C@H]3CC[C@@H]4[C@@]5(C)CC[C@H](OC(=O)[C@H]6C[C@@H](C(=O)O)C6(C)C)C(C)(C)[C@@H]5CC[C@@]4(C)[C@]3(C)CC[C@@]2(NC(=O)C(C)(C)NC(=O)C(C)(C)N)CC1=O [Example 11, (1R,3S)-3-((((3aR,5aR,5bR,7aR,9S,11aR,11bR,13aS)-3a-(2-(2-amino-2-methylpropanamido)-2-methylpropanamido)-1-isopropyl-5a,5b,8,8,11a-pentamethyl-2-oxo-3,3a,4,5,5a,5b,6,7,7a,8,9,10,11,11a,11b,12,13,13a-octadecahydro-2H-cyclopenta[a]chrysen-9-yl)oxy)carbonyl)-2,2-dimethylcyclobutane-1-carboxylic acid hydrochloride]	41	3	1	
CC(C)C1=C2[C@H]3CC[C@@H]4[C@@]5(C)CC[C@H](OC(=O)[C@H]6C[C@@H](C(=O)O)C6(C)C)C(C)(C)[C@@H]5CC[C@@]4(C)[C@]3(C)CC[C@@]2(NC(=O)C(C)(C)NC(=O)OC(C)(C)C)CC1=O [Example 75, (1R,3S)-3-((((3aR,5aR,5bR,7aR,9S,11aR,11bR,13aS)-3a-(2-((tert-butoxycarbonyl)amino)-2-methylpropanamido)-1-isopropyl-5a,5b,8,8,11a-pentamethyl-2-oxo-3,3a,4,5,5a,5b,6,7,7a,8,9,10,11,11a,11b,12,13,13a-octadecahydro-2H-cyclopenta[a]chrysen-9-yl)oxy)carbonyl)-2,2-dimethylcyclobutane-1-carboxylic acid]	63	17	2	
CC(C)C1=C2[C@H]3CC[C@@H]4[C@@]5(C)CC[C@H](OC(=O)[C@H]6C[C@@H](C(=O)O)C6(C)C)C(C)(C)[C@@H]5CC[C@@]4(C)[C@]3(C)CC[C@@]2(NC(=O)C(C)(C)NCCN(C)C)CC1=O [Example 73, (1R,3S)-3-((((3aR,5aR,5bR,7aR,9S,11aR,11bR,13aS)-3a-(2-((2-(dimethylamino)ethyl)amino)-2-methylpropanamido)-1-isopropyl-5a,5b,8,8,11a-pentamethyl-2-oxo-3,3a,4,5,5a,5b,6,7,7a,8,9,10,11,11a,11b,12,13,13a-octadecahydro-2H-cyclopenta[a]chrysen-9-yl)oxy)carbonyl)-2,2-dimethylcyclobutane-1-carboxylic acid]	52	11	9	
CCN1CCN(CC(=O)NC(C)(C)C(=O)N[C@@]23CC[C@]4(C)[C@H](CC[C@@H]5[C@@]6(C)CC[C@H](OC(=O)[C@H]7C[C@@H](C(=O)O)C7(C)C)C(C)(C)[C@@H]6CC[C@]54C)C2=C(C(C)C)C(=O)C3)CC1 [Example 9, (1R,3S)-3-((((3aR,5aR,5bR,7aR,9S,11aR,11bR,13aS)-3a-(2-(2-(4-ethylpiperazin-1-yl)acetamido)-2-methylpropanamido)-1-isopropyl-5a,5b,8,8,11a-pentamethyl-2-oxo-3,3a,4,5,5a,5b,6,7,7a,8,9,10,11,11a,11b,12,13,13a-octadecahydro-2H-cyclopenta[a]chrysen-9-yl)oxy)carbonyl)-2,2-dimethylcyclobutane-1-carboxylic acid]	100	53	14	
